Source: publication PMC2821452 (Synapse (New York, N.Y.), 2010)

Test system: opioid receptors
Assay: Affinity for opioid receptors
Format: binding
Settings: unpublished data

## CC(=O)O[C@@H]1C[C@H]2C(C)(C)C(=O)C=C[C@]2(C)[C@H]2CC[C@@]3(C)[C@H](c4ccoc4)OC(=O)[C@H]4O[C@]43[C@@]21C [Gedunin, (1S,3aS,4aR,4bS,5R,6aR,10aR,10bR,12aS)-5-(acetyloxy)-1-(3-furanyl)-1,5,6,6a,7,10a,10b,11,12,12a-decahydro-4b,7,7,10a,12a-pentamethyl-oxireno[c]phenanthro[1,2-d]pyran-3,8(3aH,4bH)-dione]
  affinity for opioid receptors: no affinity
